PubChem BioAssay (NCI)
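Five concentrations, 48 hours, 96-well plates. GI50 is the concentration that inhibits growth by half. TGI is the concentration that stops growth completely.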

Experiments:
Test in all cases: inhibition of tumour cell growth, NCI panel, 48 h
SK-OV-3 ovarian = test system: SK-OV-3 ovarian
IGROV1 ovarian = test system: IGROV1 ovarian
BT-549 breast = test system: BT-549 breast
NCI-H460 lung = test system: NCI-H460 lung
NCI-H226 lung = test system: NCI-H226 lung
SF-539 CNS = test system: SF-539 CNS
HCC-2998 colon = test system: HCC-2998 colon
MOLT-4 leukemia = test system: MOLT-4 leukemia
M14 melanoma = test system: M14 melanoma
HCT-15 colon = test system: HCT-15 colon
NCI/ADR-RES ovarian = test system: NCI/ADR-RES ovarian
MDA-MB-468 breast = test system: MDA-MB-468 breast
SF-268 CNS = test system: SF-268 CNS
NCI-H23 lung = test system: NCI-H23 lung
OVCAR-3 ovarian = test system: OVCAR-3 ovarian
HS 578T breast = test system: HS 578T breast
HL-60(TB) leukemia = test system: HL-60(TB) leukemia
OVCAR-5 ovarian = test system: OVCAR-5 ovarian
HOP-92 NSCLC = test system: HOP-92 NSCLC
LOX IMVI melanoma = test system: LOX IMVI melanoma
SN12C renal = test system: SN12C renal
KM12 colon = test system: KM12 colon
SF-295 CNS = test system: SF-295 CNS
OVCAR-8 ovarian = test system: OVCAR-8 ovarian
CAKI-1 renal = test system: CAKI-1 renal
A549 NSCLC = test system: A549 NSCLC
ACHN renal = test system: ACHN renal
A498 renal = test system: A498 renal
PC-3 prostate = test system: PC-3 prostate
HOP-62 NSCLC = test system: HOP-62 NSCLC
COLO 205 colon = test system: COLO 205 colon
EKVX NSCLC = test system: EKVX NSCLC
CCRF-CEM leukemia = test system: CCRF-CEM leukemia
U251 CNS = test system: U251 CNS
HT29 colon = test system: HT29 colon
TK-10 renal = test system: TK-10 renal
SK-MEL-2 melanoma = test system: SK-MEL-2 melanoma
T-47D breast = test system: T-47D breast
NCI-H522 lung = test system: NCI-H522 lung
SK-MEL-28 melanoma = test system: SK-MEL-28 melanoma
SNB-75 CNS = test system: SNB-75 CNS
SR leukemia = test system: SR leukemia
SW-620 colon = test system: SW-620 colon
HCT-116 colon = test system: HCT-116 colon
RXF 393 renal = test system: RXF 393 renal
UACC-62 melanoma = test system: UACC-62 melanoma
UACC-257 melanoma = test system: UACC-257 melanoma
SK-MEL-5 melanoma = test system: SK-MEL-5 melanoma
SNB-19 CNS = test system: SNB-19 CNS
DU-145 prostate = test system: DU-145 prostate
786-0 renal = test system: 786-0 renal
MDA-MB-435 = test system: MDA-MB-435
RPMI-8226 leukemia = test system: RPMI-8226 leukemia
OVCAR-4 ovarian = test system: OVCAR-4 ovarian
MCF7 breast = test system: MCF7 breast
UO-31 renal = test system: UO-31 renal
MALME-3M melanoma = test system: MALME-3M melanoma
MDA-MB-231 breast = test system: MDA-MB-231 breast
K-562 leukemia = test system: K-562 leukemia

COc1ccc(/C=C/c2nc3ccccc3n3c(-c4cccc([N+](=O)[O-])c4)nnc23)cc1
GI50 (SK-OV-3 ovarian): 5220 nM | TGI (SK-OV-3 ovarian): 17600 nM | GI50 (IGROV1 ovarian): 1890 nM | TGI (IGROV1 ovarian): 3770 nM | GI50 (BT-549 breast): 1380 nM | TGI (BT-549 breast): 2920 nM | GI50 (NCI-H460 lung): 1690 nM | TGI (NCI-H460 lung): 4260 nM | GI50 (NCI-H226 lung): 626 nM | TGI (NCI-H226 lung): 2490 nM | GI50 (SF-539 CNS): 1440 nM | TGI (SF-539 CNS): 2750 nM | GI50 (HCC-2998 colon): 2570 nM | TGI (HCC-2998 colon): 11300 nM | GI50 (MOLT-4 leukemia): 1210 nM | TGI (MOLT-4 leukemia): 4100 nM | GI50 (M14 melanoma): 760 nM | TGI (M14 melanoma): 2170 nM | GI50 (HCT-15 colon): 948 nM | TGI (HCT-15 colon): 2250 nM | GI50 (NCI/ADR-RES ovarian): 2100 nM | TGI (NCI/ADR-RES ovarian): 6930 nM | GI50 (MDA-MB-468 breast): 1130 nM | TGI (MDA-MB-468 breast): 2850 nM | GI50 (SF-268 CNS): 2770 nM | TGI (SF-268 CNS): 10200 nM | GI50 (NCI-H23 lung): 1510 nM | TGI (NCI-H23 lung): 3010 nM | GI50 (OVCAR-3 ovarian): 1270 nM | TGI (OVCAR-3 ovarian): 2610 nM | GI50 (HS 578T breast): 3990 nM | TGI (HS 578T breast): 20700 nM | GI50 (HL-60(TB) leukemia): 1620 nM | TGI (HL-60(TB) leukemia): 10900 nM | GI50 (OVCAR-5 ovarian): 1770 nM | TGI (OVCAR-5 ovarian): 3610 nM | GI50 (HOP-92 NSCLC): 1910 nM | TGI (HOP-92 NSCLC): 4930 nM | GI50 (LOX IMVI melanoma): 148 nM | TGI (LOX IMVI melanoma): 289 nM | GI50 (SN12C renal): 1140 nM | TGI (SN12C renal): 2360 nM | GI50 (KM12 colon): 2620 nM | TGI (KM12 colon): 10800 nM | GI50 (SF-295 CNS): 9610 nM | TGI (SF-295 CNS): 21400 nM | GI50 (OVCAR-8 ovarian): 1750 nM | TGI (OVCAR-8 ovarian): 4800 nM | GI50 (CAKI-1 renal): 2470 nM | TGI (CAKI-1 renal): 10400 nM | GI50 (A549 NSCLC): 2650 nM | TGI (A549 NSCLC): 11000 nM | GI50 (ACHN renal): 1370 nM | TGI (ACHN renal): 2660 nM | GI50 (A498 renal): 12400 nM | TGI (A498 renal): 28100 nM | GI50 (PC-3 prostate): 3010 nM | TGI (PC-3 prostate): 14500 nM | GI50 (HOP-62 NSCLC): 5470 nM | TGI (HOP-62 NSCLC): 18200 nM | GI50 (COLO 205 colon): 1760 nM | TGI (COLO 205 colon): 3660 nM | GI50 (EKVX NSCLC): 3860 nM | TGI (EKVX NSCLC): 14800 nM | GI50 (CCRF-CEM leukemia): 312 nM | TGI (CCRF-CEM leukemia): 1150 nM | GI50 (U251 CNS): 1520 nM | TGI (U251 CNS): 3300 nM | GI50 (HT29 colon): 1120 nM | TGI (HT29 colon): 2320 nM | GI50 (TK-10 renal): 2870 nM | TGI (TK-10 renal): 9900 nM | GI50 (SK-MEL-2 melanoma): 2630 nM | TGI (SK-MEL-2 melanoma): 9090 nM | GI50 (T-47D breast): 3760 nM | TGI (T-47D breast): 16100 nM | GI50 (NCI-H522 lung): 120 nM | TGI (NCI-H522 lung): 258 nM | GI50 (SK-MEL-28 melanoma): 2190 nM | TGI (SK-MEL-28 melanoma): 4940 nM | GI50 (SNB-75 CNS): 4120 nM | TGI (SNB-75 CNS): 15900 nM | GI50 (SR leukemia): 247 nM | TGI (SR leukemia): 1360 nM | GI50 (SW-620 colon): 631 nM | TGI (SW-620 colon): 1870 nM | GI50 (HCT-116 colon): 1080 nM | TGI (HCT-116 colon): 2270 nM | GI50 (RXF 393 renal): 1240 nM | TGI (RXF 393 renal): 2550 nM | GI50 (UACC-62 melanoma): 1700 nM | TGI (UACC-62 melanoma): 4300 nM | GI50 (UACC-257 melanoma): 3650 nM | TGI (UACC-257 melanoma): 15000 nM | GI50 (SK-MEL-5 melanoma): 2060 nM | TGI (SK-MEL-5 melanoma): 5380 nM | GI50 (SNB-19 CNS): 5840 nM | TGI (SNB-19 CNS): 18800 nM | GI50 (DU-145 prostate): 1610 nM | TGI (DU-145 prostate): 4290 nM | GI50 (786-0 renal): 1450 nM | TGI (786-0 renal): 2760 nM | GI50 (MDA-MB-435): 1900 nM | TGI (MDA-MB-435): 5650 nM | GI50 (RPMI-8226 leukemia): 1440 nM | TGI (RPMI-8226 leukemia): 4030 nM | GI50 (OVCAR-4 ovarian): 1680 nM | TGI (OVCAR-4 ovarian): 5320 nM | GI50 (MCF7 breast): 1830 nM | TGI (MCF7 breast): 10100 nM | GI50 (UO-31 renal): 2000 nM | TGI (UO-31 renal): 8800 nM | GI50 (MALME-3M melanoma): 581 nM | TGI (MALME-3M melanoma): 1980 nM | GI50 (MDA-MB-231 breast): 1800 nM | TGI (MDA-MB-231 breast): 4550 nM | GI50 (K-562 leukemia): 307 nM | TGI (K-562 leukemia): 2140 nM
